Test results as given in patent publication US6465482B2, “Arylpiperazinyl-cyclohexyl indole derivatives for the treatment of depression” (Wyeth, priority 1999, dated 2002).

Legend:
[1] = target: T1, 5-HT1A cloned receptor membrane fragments (Homo sapiens, UniProt P08908); assay: [35S]-GTPγS binding assay; type: biochemical; conditions: relative to excess 8-OH-DPAT maximum agonist response
T1 construct: expressed in transfected cells
T1 sequence (P08908 1-422): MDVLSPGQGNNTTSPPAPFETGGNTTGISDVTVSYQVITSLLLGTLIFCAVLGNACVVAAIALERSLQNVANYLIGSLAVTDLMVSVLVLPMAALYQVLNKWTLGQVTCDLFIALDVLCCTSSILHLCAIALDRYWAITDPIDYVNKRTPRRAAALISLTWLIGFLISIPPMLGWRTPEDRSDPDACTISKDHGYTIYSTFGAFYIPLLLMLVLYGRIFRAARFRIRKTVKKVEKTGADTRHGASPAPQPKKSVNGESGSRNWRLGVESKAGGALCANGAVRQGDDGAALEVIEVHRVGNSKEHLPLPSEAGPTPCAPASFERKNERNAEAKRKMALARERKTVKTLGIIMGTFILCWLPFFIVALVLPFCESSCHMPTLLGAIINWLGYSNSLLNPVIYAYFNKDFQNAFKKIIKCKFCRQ
Protocol: The [^35S]-GTPγS biding assay was similar to that used by Lazarenno and Birdsall, Br. J. Pharmacol. 109:1120 (1993). Briefly, 5-HT1A cloned receptor membrane fragments (as used for 5-HT1A receptor binding assays were stored at −70° C. unit needed. When needed, membranes were rapidly thawed, centrifuged at […] for 10 minutes and resuspended at 4° C. for 10 minutes in assay buffer (25 mM HEPES, 3 mM MgCl2, 100 mM NaCl, 1 mM EDTA, 10 uM GDP, […], pH 8.0). These membranes were then incubated for 30 minutes at 30+ C. with [^35S]GTPgS (1 nM) in the presence of vehicle, test compound (one to eight concentrations), or excess 8-OH-DPAT to define maximum agonist response. All reactions are terminated by the addition of ice cold Tris buffer followed by rapid filtration using a Tom Tech® filtration device to separate bound from free [^35S]GTPgS. Agonists produce an increase in the amount of [^35S]GTPgS bound whereas antagonists produce no increase in binding. Bound radioactivity was counted and analyzed as above.

[2] = target: T2, human 5-HT1A receptor subtype (5-HT1A CHO cells) (Homo sapiens, UniProt P08908); assay: forskolin-stimulated cAMP formation (cAMP SPA assay); type: cell-based; conditions: forskolin 1 uM
T2 construct: expressed in transfected cells
T2 sequence (P08908 1-422): T1 sequence (P08908 1-422)
Protocol: (§1) The PCR cloning of the human 5-HT1A receptor subtype from a human genomic library has been described previously Chanda et al., Mol. Pharmacol., 43:516 (1993). A stable Chinese hamster ovary cell line expressing the human 5-HT1A receptor subtype (5-HT1A.CH2O cells) was employed throughout this study. Cells were maintained in DMEM supplemented with 10% fetal calf serum, non-essential amino acids and penicillin/streptomycin.
The following assays were performed by incubating the cells with DMEM containing 25 mM HEPES, 5 mM theophylline and 10 μM pargyline for a period of 20 minutes at 37° C. Functional activity was assessed by treating the cells with forskolin (1 uM final concentration) followed immediately by test compound (6 concentrations) for an additional 10 minutes at 37° C. In separate experiments, 6 concentrations of antagonist were preincubated for 20 minutes prior to the addition of 10 nM 8-OH-DPAT and forskolin. The reaction was terminated by removal of the media and addition of 0.5 ml ice cold assay buffer. Plates were stored at −20° C. prior to assessment of cAMP formation by a cAMP SPA assay (Amersham).

[3] = target: T3, human 5-HT1A receptor subtype (Homo sapiens, UniProt P08908); assay: 5-HT1A receptor binding, [3H]8-OH-DPAT, CHO cell membranes; conditions: [3H]8-OH-DPAT 1.5 nM
T3 construct: expressed in transfected cells
T3 sequence (P08908 1-422): T1 sequence (P08908 1-422)
Protocol: as §1
Cells were grown to 95-100% confluency as a monolayer before membranes were harvested for binding studies. Cells were gently scraped from the culture plates, transferred to centrifuge tubes, and washed twice by centrifugation (2000 rpm for 10 min., 4° C.) in buffer (50 mM Tris; pH 7.5). The resulting pellets were aliquoted and placed at −80° C. On the day of assay, the cells were thawed on ice, and resuspended in buffer. Studies were conducted using [^3H]8-OH-DPAT as the radioligand. The binding assay was performed in 96 well microtiter plates in a final total volume of 250 μL of buffer. Competition experiments were performed by using 7 concentrations of unlabelled drug and a final ligand concentration of 1.5 nM. Non-specific binding was determined in the presence of 10 μM 5HT. Saturation analysis was conducted by using [^3H]8-OH-DPAT at concentaritions ranging from 0.3-30 nm Following a 30 minute incubation at room temperature, the reaction was terminated by the addition of ice cold buffer and rapid filtration using a M-96 Brandel Cell Harvester (Gaithersburg, Md.) through a GF/B filter presoaked for 30 minutes in 0.5% polyethylenenimine.

serotonin transporter = target: T4, serotonin transporter (Rattus norvegicus, UniProt P31652); assay: serotonin transporter affinity, 3H-paroxetine binding, frontal cortical membranes; conditions: 3H-paroxetine 0.1 nM; read-out: ST (Ki, nM,)
T4 construct: frontal cortical membranes prepared from male Sprague-Dawley rats; from tissue; host or cells: rat frontal cortex membranes
T4 sequence (P31652 whole entry): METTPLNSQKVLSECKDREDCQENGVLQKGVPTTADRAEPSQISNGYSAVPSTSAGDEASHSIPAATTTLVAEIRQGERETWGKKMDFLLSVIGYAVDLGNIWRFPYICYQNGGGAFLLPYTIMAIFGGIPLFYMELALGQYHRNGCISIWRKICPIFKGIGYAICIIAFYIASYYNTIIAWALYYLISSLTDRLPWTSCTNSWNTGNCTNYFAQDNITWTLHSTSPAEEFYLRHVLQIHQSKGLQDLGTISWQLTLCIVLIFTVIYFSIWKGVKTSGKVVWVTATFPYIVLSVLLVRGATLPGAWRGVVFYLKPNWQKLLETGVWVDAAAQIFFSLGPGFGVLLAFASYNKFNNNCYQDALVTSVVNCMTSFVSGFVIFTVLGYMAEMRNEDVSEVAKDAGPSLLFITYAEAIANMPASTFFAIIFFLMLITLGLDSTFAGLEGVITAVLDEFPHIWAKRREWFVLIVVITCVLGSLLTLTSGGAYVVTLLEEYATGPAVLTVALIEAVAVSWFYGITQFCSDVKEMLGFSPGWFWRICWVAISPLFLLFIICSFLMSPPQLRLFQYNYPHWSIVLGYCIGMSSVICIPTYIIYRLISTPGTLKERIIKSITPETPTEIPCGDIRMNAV
Protocol: A protocol similar to that used by Cheetham et al., Neuropharmacol. […] Briefly, frontal cortical membranes prepared from male Sprague-Dawley rats were incubated with ^3H-paroxetine (0.1 nM) for 60 minutes at 25° C. […] All reactions are terminated by the addition of ice cold Tris buffer followed by rapid filtration using a Tom Tech filtration device to separate bound from free ^3H-paroxetine.

Structure (SMILES)	Emax [1] [%]	Emax [2] [%]	Ki [3] [nM]	Ki (serotonin transporter) [nM]
Fc1ccc2[nH]cc([C@H]3CC[C@@H](N4CCN(c5cccc6[nH]ccc56)CC4)CC3)c2c1 [Example 3a, 5-Fluoro-3-[cis-4-[4-(1H-indol-4-yl)-1-piperazinyl]cyclohexyl]-1H-indole]	10	0	36.7	
N#Cc1ccc2[nH]cc([C@H]3CC[C@@H](N4CCN(c5cccc6[nH]ccc56)CC4)CC3)c2c1 [Example 7a, 3-{4-[(1,4-cis)-4-(1H-Indol-4-yl)-piperazinyl-1-yl]cyclohexyl}-1H-indole-5-carbonitrile]	0	0		1.62
N#Cc1ccc2[nH]cc([C@H]3CC[C@H](N4CCN(c5cccc6[nH]ccc56)CC4)CC3)c2c1 [Example 7b, 3-{4-[(1,4-trans)-4-(1H-Indol-4-yl)-piperazinyl-1-yl]cyclohexyl}-1H-indole-5-carbonitrile]		83		4.19
c1cc(N2CCN([C@H]3CC[C@@H](c4c[nH]c5ncccc54)CC3)CC2)c2cc[nH]c2c1 [Example 10a, 3-{(1,4-cis)-4-[4-(1H-Indole-4-yl)-piperazin-1-yl]-cyclohexyl}-1H-pyrrolo[2,3-b]pyridine]		0	15.8	
c1cc(N2CCN([C@H]3CC[C@H](c4c[nH]c5ncccc54)CC3)CC2)c2cc[nH]c2c1 [Example 10b, 3-{(1,4-trans)-4-[4-(1H-Indole-4-yl)-piperazin-1-yl]-cyclohexyl}-1H-pyrrolo[2,3-b]pyridine]	14	79	7.78	
COc1ccccc1C1CCN([C@H]2CC[C@H](c3c[nH]c4ccc(F)cc43)CC2)CC1 [Example 19b, 5-Fluoro-3-{(1,4-trans)-4-[4-(2-methoxy-phenyl)-piperidin-1-yl]-cyclohexyl}-1H-indole]	74	92	26.2	
COc1ccc2[nH]cc([C@H]3CC[C@H](N4CCN(c5ccccc5OC)CC4)CC3)c2c1 [Example 20b, 5-Methoxy-3-{(1,4-trans)-4-[4-(2-methoxy-phenyl)-piperazin-1-yl]-cyclohexyl}-1H-indole]	33	75.5	14.9	
Fc1ccc2[nH]cc([C@H]3CC[C@@H](N4CCN(c5cccc6c5OCCO6)CC4)CC3)c2c1 [Example 24a, 3-{(1,4-cis)-4-[4-(2,3-Dihydro-benzo[1,4]dioxin-5-yl)-piperazin-1-yl]-cyclohexyl}-5-fluoro-1H-indole]		81	65.7	6.9
Fc1ccc2c(c1)[nH]cc2[C@H]1CC[C@@H](N2CCN(c3cccc4c3OCCO4)CC2)CC1 [Example 25a, 3-{(1,4-cis)-4-[4-(2,3-Dihydro-benzo[1,4]dioxin-5-yl)-piperazin-1-yl]-cyclohexyl}-6-fluoro-1H-indole]		0	67.7	63
Fc1ccc2c(c1)[nH]cc2[C@H]1CC[C@H](N2CCN(c3cccc4c3OCCO4)CC2)CC1 [Example 25b, 3-{(1,4-trans)-4-[4-(2,3-Dihydro-benzo[1,4]dioxin-5-yl)-piperazin-1-yl]-cyclohexyl}-6-fluoro-1H-indole]	46		9.66	58
N#Cc1ccc2[nH]cc([C@H]3CC[C@@H](N4CCN(c5cccc6c5OCCO6)CC4)CC3)c2c1 [Example 26a, 3-{(1,4-cis)-4-[4-(2,3-Dihydro-benzo[1,4]dioxin-5-yl)-piperazin-1-yl]-cyclohexyl}-1H-indole-5-carbonitrile]	18	0	59.1	4.1
N#Cc1ccc2[nH]cc([C@H]3CC[C@H](N4CCN(c5cccc6c5OCCO6)CC4)CC3)c2c1 [Example 26b, 3-{(1,4-trans)-4-[4-(2,3-Dihydro-benzo[1,4]dioxin-5-yl)-piperazin-1-yl]-cyclohexyl}-1H-indole-5-carbonitrile]	39		8.5	23
N#Cc1ccc2[nH]cc([C@H]3CC[C@@H](N4CCN(c5cccc6cccnc56)CC4)CC3)c2c1 [Example 29a, 3-[(1,4-cis)-4-(4-Quinolin-8-yl-piperazin-1-yl)-cyclohexyl]-1H-indole-5-carbonitrile]		0		2.25
N#Cc1ccc2[nH]cc([C@H]3CC[C@H](N4CCN(c5cccc6cccnc56)CC4)CC3)c2c1 [Example 29b, 3-[(1,4-trans)-4-(4-Quinolin-8-yl-piperazin-1-yl)-cyclohexyl]-1H-indole-5-carbonitrile]	70			
Cn1cc([C@H]2CC[C@@H](N3CCN(c4cccc5cccnc45)CC3)CC2)c2cc(C#N)ccc21 [Example 30, 1-Methyl-3-[(1,4-cis)-4-(4-quinolin-8-yl-piperazin-1-yl)-cyclohexyl]-1H-indole-5-carbonitrile]		95	24.5	1.25
Cn1cc([C@H]2CC[C@@H](N3CCN(c4cc(F)cc5c4OCC5)CC3)CC2)c2cc(C#N)ccc21 [Example 33c, 3-{(1,4-cis)-4-[4-(5-Fluoro-2,3-dihydro-benzofuran-7-yl)-piperazin-1-yl]-cyclohexyl}-1-methyl-1H-indole-5-carbonitrile]			431	7.1
N#Cc1ccc2[nH]cc([C@H]3CC[C@@H](N4CCN(c5cccc6ccoc56)CC4)CC3)c2c1 [Example 34a]			185	1.49
N#Cc1ccc2[nH]cc([C@H]3CC[C@H](N4CCN(c5cccc6ccoc56)CC4)CC3)c2c1 [Example 34b]			8.37	17
Cn1cc([C@H]2CC[C@@H](N3CCN(c4cccc5[nH]ccc45)CC3)CC2)c2cc(F)ccc21 [Example 38, 5-Fluoro-3-{cis-4-[4-(1H-indol-4-yl)-piperazinyl]-cyclohexyl}-1-methyl-1H-indole]			124	7.22
COc1cc(N2CCN([C@H]3CC[C@@H](c4c[nH]c5ccc(C#N)cc54)CC3)CC2)c2ncccc2c1 [Example 44c, 3-{(1,4-cis)-4-[4-(6-Methoxy-quinolin-8-yl)-piperazin-1-yl]-cyclohexyl}-1H-indole-5-carbonitrile]			21	1.5
